Results as given in US7928187B2, “Neuropeptide alarin” (Austria Wirtschaftsservice Gesellschaft mit beschrankter …, priority 2005, dated 2011).
Ends that are not written are not given here.

Assays:
[1] = Food intake after injection into the lateral ventricles; assay type: in vivo, mice (C57Bl/6); settings: 5 nmol, single injection into lateral ventricles, one hour after injection, adult male mice
Description: (§1) Intact adult male mice (C57Bl/6) were treated by a single injection into the lateral ventricles with either artificial cerebrospinal fluid (aCSF), alarin 1-25 (A1), alarin 3-25 (A3). Each treatment was given in an equimolar dose of 5 nmol. Body weight and food weight were measured at 1 hr, 2 hr, and 24 hr post injection. (Shown here as grams of food consumed).

[2] = Body weight after injection into the lateral ventricles; assay type: in vivo, mice (C57Bl/6); settings: 5 nmol, single injection into lateral ventricles, one hour after injection, adult male mice
Description: as §1, with “percent change in body weight from baseline).” for “grams of food consumed).”

CNS = experiment: Functional assays in the CNS with murine alarin peptides; assay type: in vivo, mice (C57Bl/6); settings: amidated synthetic murine peptides 1-25 and 3-25
Description: as §1, with “percent change in body weight from baseline).” for “grams of food consumed).”
as §1
(§2) Intact adult male mice (C57Bl/6) were treated by a single injection into the lateral ventricles with either artificial cerebrospinal fluid (aCSF), alarin 1-25 (A1), alarin 3-25 (A3). Each treatment was given in an equimolar dose of 5 nmol. Blood was collected 30 min after injection and serum was assayed for LH content. (LH levels shown here in ng/ml).

[3] = Luteinising hormone (LH) level after injection into the lateral ventricles; assay type: in vivo, mice (C57Bl/6); settings: 5 nmol, single injection into lateral ventricles, blood collected 30 min after injection, adult male mice
Description: as §2

CD-1 mouse skin = experiment: Inflammatory oedema formation (plasma extravasation) in mouse dorsal skin; assay type: in vivo
Description: Experiments involving mice were carried out under the Animals (Scientific Procedures) Act, 1986. Normal female CD-1 mice (22-27 g, 8-12 weeks) were obtained from Charles River, U.K. All mice were maintained on normal diet, with free access to food and water, in a climatically controlled environment. Animals were anaesthetized with urethane (25% w v-1; 2.5 g kg-1 i.p.) and the dorsal skin was shaved. Injection sites were chosen according to a randomized site pattern on the dorsal skin of the anaesthetized mouse. Agents were from Sigma, Poole, U.K., unless specified. Alarin (1-25)-amide (murine) alarin (3-32)-amide (murine) were custom synthesized by NeoMPS Inc. (Strasbourg, France). All peptides were dissolved in distilled water. The stock solutions (10 nM) were stored at −20° C. and further diluted in Tyrode's solution (137 mM NaCl, 2.7 mM KCl, 0.5 mM MgCl2, 0.4 mM NaH2PO4, 11.9 mM NaHCO3, 5.6 mM glucose) just prior use.
Plasma extravasation was used as an index of inflammatory oedema formation and measured as previously described (Cao et al, 1999). Briefly, test agents were diluted in Tyrode's solution and stored on ice. […] The amount of plasma extravasated (μl g-1 tissue) was calculated by comparing the amount of radioactivity in each skin site with that in 100 μl plasma from the same animal.

GALR2 receptor = molecular target: T1, GALR2 receptor (Homo sapiens, UniProt O43603); experiment: Microphysiometry, extracellular acidification rate, SY5Y cells expressing GALR2; assay type: cell-based; settings: human neuroblastoma cells SY5Y expressing GALR2; alarin 100 nM
T1 construct: expressed in transfected cells; host or cells: SH-SY5Y human neuroblastoma cells
T1 sequence (O43603 1-387): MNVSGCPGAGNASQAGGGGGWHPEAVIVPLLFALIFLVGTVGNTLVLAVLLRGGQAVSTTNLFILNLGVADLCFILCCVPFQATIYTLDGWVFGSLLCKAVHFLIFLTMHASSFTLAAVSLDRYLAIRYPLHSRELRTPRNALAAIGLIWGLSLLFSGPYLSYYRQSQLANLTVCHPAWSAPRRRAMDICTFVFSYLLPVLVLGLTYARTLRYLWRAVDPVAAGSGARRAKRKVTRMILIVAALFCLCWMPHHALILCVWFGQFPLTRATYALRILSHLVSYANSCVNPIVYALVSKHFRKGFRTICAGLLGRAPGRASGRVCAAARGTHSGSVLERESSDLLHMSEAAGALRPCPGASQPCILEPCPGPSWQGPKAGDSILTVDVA

galanin receptors [4] = experiment: Microphysiometry on galanin receptor expressing cells, receptor activation; assay type: cell-based, human; settings: binding assays and microphysiometry on galanin receptor expressing cells
Description: After reaching confluency the cells are harvested and seeded into 3.0 μm pore transwells (Corning Costar) held in 12 well plates one day before the experiment. The cells are allowed to settle down in the culture medium and cultured overnight in serum-free growth-medium. The ECAR of cells is determined by using a Cytosensor Microphysiometer (Molecular Devices). A capsule spacer and a capsule insert are assembled in the transwells, transferred into a sensor chamber and kept in DMEM without sodium bicarbonate throughout the entire experiment at 37° C. The running medium is pumped through each sensor chamber at 50 μl min^−1. A typical pumping cycle of 120 s consists of a flow period of 90 s, followed by a flow-off period of 30 s. During flow-off periods, protons released from the cells accumulate in the sensor chamber, and the rate of proton release is quantified by fitting the sensor data to a straight line with the least-squares fit to the slope of the pH profile. Agonists or other agents are diluted into running medium and perfused through a second fluid path. […]
SH-SY5Y/GalR1 and SH-SY5Y/GalR2 cells (Berger 2004) were seeded into 3.0-μM pore size Transwells (Corning Costar, Cambridge, Mass., USA). The extracellular acidification rate was determined using a cytosensor microphysiometer (Molecular Devices, Ismanning, Germany) as previously reported (Lang et al., 2001).

galanin receptors [5] = experiment: Receptor binding assay, displacement of radiolabeled GAL from membrane preparations; settings: binding assays and functional microphysiometry, 50 pM [125I]GAL
Description: Membrane preparations and radioligand binding assays were performed according to Berger et al. (Berger et al., 2002). Displacement of radiolabeled GAL binding to membrane preparations (15 μg) was carried out in duplicates in a total volume of 120 μl of binding buffer containing 50 pM [125I]GAL (2,000 Ci/mmol; Amersham Pharmacia Biotech (Little Chalfont, UK) and different concentrations of synthetic murine alarin (1-25-amide) and alarin (3-25-amide).

Alarin 3-25: amidated synthetic murine alarin peptide 3-25 (AHRSSPFPPRPTRAGRETQLLRS-NH2)
food intake [1]: significant decrease | body weight [2]: significant reduction | activity in the CNS (CNS): active | plasma LH levels [3]: significant increase

Alarin 1-25: amidated synthetic murine alarin peptide 1-25 (APAHRSSPFPPRPTRAGRETQLLRS-NH2)
potency in inhibition of oedema formation in the skin, alarin 1-25 compared with alarin 3-25 (CD-1 mouse skin; amidated synthetic murine peptides): more potent | activity in the CNS (CNS): only alarin 3-25 was active in the CNS

APAHRSSTFPKWVTKTERGRQPLRS (listed as Homo sapiens) [alarin, novel neuropeptide, splice variant of GALP mRNA]
change in extracellular acidification (GALR2 receptor): No change | inhibition of inflammatory oedema (CD-1 mouse skin; co-injection with substance P (300 pmol) and CGRP (10 pmol), intradermal, murine dorsal skin): inhibition of inflammatory oedema | activation of galanin receptors (galanin receptors [4]): not able to activate these receptors | binding to galanin receptors (galanin receptors [5]): can be excluded
